Measured values published in patent US20250353891A1 (MEDIMMUNE LIMITED, priority 2022, published 2025).
pEC50: −log10 of the molar value. Starred links: 1 amine or outer side, 2 acyl side, 3 side chain; linkers in the order of their positions; H or OH if unused. Non-standard residues stand in square brackets, D forms with d. Residues, ends and D or L forms follow the SMILES beside them. Groups on a side chain read outwards from the residue. *: point of attachment. C18 diacid = O=C(O)CCCCCCCCCCCCCCCCC(=O)*; γGlu = O=C(O)[C@H](CCC(=O)[*:2])N[*:1]; αMeF = C[C@](N)(Cc1ccccc1)C(=O)O; AEEA = NCCOCCOCC(=O)O; Aib = CC(C)(N)C(=O)O

Tests used:
[1] = biological target: human GLP-1 receptor (hGLP-1R) (Homo sapiens, UniProt P43220); assay: cAMP production (HTRF) in CHO cells expressing hGLP-1R; type: cell-based; design: expressed in transfected cells; details: for pEC50: Table 6, peptides modified at position 17, cAMP in CHO hGLP-1R cells, geometric mean, read-out: hGLP-1R EC50; for % Relative Potency Ratio: Table 6, % GLP-1R activity relative to GLP-1 / % GlucR activity relative to glucagon
Chain of human GLP-1 receptor (hGLP-1R) (P43220 24-463): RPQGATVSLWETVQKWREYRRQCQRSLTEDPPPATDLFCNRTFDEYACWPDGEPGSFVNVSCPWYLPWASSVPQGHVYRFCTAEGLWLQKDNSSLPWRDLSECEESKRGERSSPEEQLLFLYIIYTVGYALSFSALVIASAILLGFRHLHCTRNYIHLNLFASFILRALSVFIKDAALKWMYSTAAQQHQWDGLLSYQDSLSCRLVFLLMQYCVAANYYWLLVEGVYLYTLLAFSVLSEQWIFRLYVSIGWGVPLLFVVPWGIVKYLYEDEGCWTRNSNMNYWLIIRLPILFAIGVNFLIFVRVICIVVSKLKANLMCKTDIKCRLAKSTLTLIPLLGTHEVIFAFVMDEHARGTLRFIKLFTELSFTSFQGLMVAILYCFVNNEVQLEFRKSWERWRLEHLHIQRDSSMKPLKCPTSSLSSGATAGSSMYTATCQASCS
Method in brief: (§1)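 Cells were resuspended in assay buffer at batch-optimized density, typically 1×10^5 cells/mL for hGLP-1R and 2×10^5 cells/mL for hGCGR. After 30 min incubation at room temperature with compound, cAMP was measured by two-step HTRF. EC50 values came from 4-parameter logistic fits of % Delta F.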

[2] = biological target: human glucagon receptor (hGCGR) (Homo sapiens, UniProt P47871); assay: cAMP production (HTRF) in CHO cells expressing hGCGR; type: cell-based; design: expressed in transfected cells; details: Table 6, peptides modified at position 17; cAMP in CHO hGCGR cells; geometric mean; read-out: hGluc-R EC50
Chain of human glucagon receptor (hGCGR) (P47871 26-477): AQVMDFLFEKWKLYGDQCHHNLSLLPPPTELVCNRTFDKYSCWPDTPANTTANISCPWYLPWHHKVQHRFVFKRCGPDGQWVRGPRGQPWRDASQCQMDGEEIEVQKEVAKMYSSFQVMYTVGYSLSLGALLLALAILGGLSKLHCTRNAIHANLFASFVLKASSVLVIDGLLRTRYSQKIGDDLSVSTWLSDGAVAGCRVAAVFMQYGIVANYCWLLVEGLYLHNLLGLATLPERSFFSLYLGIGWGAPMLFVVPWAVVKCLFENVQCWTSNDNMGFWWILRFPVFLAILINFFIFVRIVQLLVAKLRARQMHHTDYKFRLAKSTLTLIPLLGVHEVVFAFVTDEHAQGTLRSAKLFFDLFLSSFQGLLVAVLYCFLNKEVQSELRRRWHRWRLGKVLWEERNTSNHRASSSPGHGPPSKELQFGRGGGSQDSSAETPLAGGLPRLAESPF
Method in brief: as §1

Structure (SMILES)	pEC50 [1]	% Relative Potency Ratio [1]	pEC50 [2]
CC(C)C[C@H](NC(=O)[C@H](CC(C)C)NC(=O)[C@H](Cc1c[nH]c2ccccc12)NC(=O)[C@H](CCCNC(=N)N)NC(=O)[C@@H](NC(=O)[C@H](Cc1ccccc1)NC(=O)[C@H](CC(=O)O)NC(=O)[C@H](CCC(N)=O)NC(=O)[C@H](C)NC(=O)[C@H](CCCNC(=N)N)NC(=O)[C@H](CCCCNC(=O)COCCOCCNC(=O)COCCOCCNC(=O)CCCCCCCCCCCCCCCCC(=O)O)NC(=O)[C@H](CCCCN)NC(=O)[C@H](CC(=O)O)NC(=O)[C@H](CC(C)C)NC(=O)[C@](C)(Cc1ccccc1)NC(=O)[C@H](CCCCN)NC(=O)[C@H](CO)NC(=O)[C@@H](NC(=O)[C@H](CC(=O)O)NC(=O)[C@H](CO)NC(=O)[C@@H](NC(=O)[C@H](Cc1ccccc1)NC(=O)[C@@H](NC(=O)CNC(=O)[C@H](CCC(N)=O)NC(=O)C(C)(C)NC(=O)[C@@H](N)Cc1c[nH]cn1)[C@@H](C)O)[C@@H](C)O)C(C)C)C(C)C)C(=O)N[C@@H](C)C(=O)NC(C)(C)C(=O)N[C@@H](CCCCN)C(=O)O [Peptide 184] (H-H[Aib]QGTFTSDVSK[αMeF]LDKK([AEEA-AEEA-C18 diacid])RAQDFVRWLLA[Aib]K-OH; N-terminus assumed)	10.66	2.7	10.53
CC(C)C[C@H](NC(=O)[C@H](Cc1c[nH]c2ccccc12)NC(=O)[C@H](CCCNC(=N)N)NC(=O)[C@@H](NC(=O)[C@H](Cc1ccccc1)NC(=O)[C@H](CC(=O)O)NC(=O)[C@H](CCC(N)=O)NC(=O)[C@H](C)NC(=O)[C@H](CCCNC(=N)N)NC(=O)[C@H](CCCCNC(=O)COCCOCCNC(=O)COCCOCCNC(=O)CC[C@H](NC(=O)CCCCCCCCCCCCCCCCC(=O)O)C(=O)O)NC(=O)[C@@H](NC(=O)[C@H](CC(=O)O)NC(=O)[C@H](CC(C)C)NC(=O)[C@](C)(Cc1ccccc1)NC(=O)[C@H](CCCCN)NC(=O)[C@H](CO)NC(=O)[C@@H](NC(=O)[C@H](CC(=O)O)NC(=O)[C@H](CO)NC(=O)[C@@H](NC(=O)[C@H](Cc1ccccc1)NC(=O)[C@@H](NC(=O)CNC(=O)[C@H](CCC(N)=O)NC(=O)C(C)(C)NC(=O)[C@@H](N)Cc1c[nH]cn1)[C@@H](C)O)[C@@H](C)O)C(C)C)[C@@H](C)O)C(C)C)C(=O)N[C@@H](CC(C)C)C(=O)N[C@@H](CCC(=O)O)C(=O)NC(C)(C)C(=O)NCC(N)=O [Peptide 185] (H-H[Aib]QGTFTSDVSK[αMeF]LDTK([AEEA-AEEA-γGlu-C18 diacid])RAQDFVRWLLE[Aib]G-NH2; N-terminus assumed)	10.36	10.3	9.64
CC(C)C[C@H](NC(=O)[C@H](CC(C)C)NC(=O)[C@H](Cc1c[nH]c2ccccc12)NC(=O)[C@H](CCCNC(=N)N)NC(=O)[C@@H](NC(=O)[C@H](Cc1ccccc1)NC(=O)[C@H](CC(=O)O)NC(=O)[C@H](CCC(N)=O)NC(=O)[C@H](C)NC(=O)[C@H](CCCNC(=N)N)NC(=O)[C@H](CCCCNC(=O)COCCOCCNC(=O)COCCOCCNC(=O)CC[C@H](NC(=O)CCCCCCCCCCCCCCCCC(=O)O)C(=O)O)NC(=O)[C@@H](NC(=O)[C@H](CC(=O)O)NC(=O)[C@H](CC(C)C)NC(=O)[C@](C)(Cc1ccccc1)NC(=O)[C@H](CCCCN)NC(=O)[C@H](CO)NC(=O)[C@@H](NC(=O)[C@H](CC(=O)O)NC(=O)[C@H](CO)NC(=O)[C@@H](NC(=O)[C@H](Cc1ccccc1)NC(=O)[C@@H](NC(=O)CNC(=O)[C@H](CCC(N)=O)NC(=O)C(C)(C)NC(=O)[C@@H](N)Cc1c[nH]cn1)[C@@H](C)O)[C@@H](C)O)C(C)C)[C@@H](C)O)C(C)C)C(=O)N[C@@H](CCC(=O)O)C(=O)N[C@@H](C)C(=O)NCC(=O)O [Peptide 186] (H-H[Aib]QGTFTSDVSK[αMeF]LDTK([AEEA-AEEA-γGlu-C18 diacid])RAQDFVRWLLEAG-OH; N-terminus assumed)	10.35	4.4	10.00
CC(C)C[C@H](NC(=O)[C@H](Cc1c[nH]c2ccccc12)NC(=O)[C@H](CCCNC(=N)N)NC(=O)[C@@H](NC(=O)[C@H](Cc1ccccc1)NC(=O)[C@H](CC(=O)O)NC(=O)[C@H](CCCNC(=N)N)NC(=O)[C@H](C)NC(=O)[C@H](CCCNC(=N)N)NC(=O)[C@H](CCCCNC(=O)COCCOCCNC(=O)COCCOCCNC(=O)CC[C@H](NC(=O)CCCCCCCCCCCCCCCCC(=O)O)C(=O)O)NC(=O)[C@@H](NC(=O)[C@H](CC(=O)O)NC(=O)[C@H](CC(C)C)NC(=O)[C@](C)(Cc1ccccc1)NC(=O)[C@H](CCCCN)NC(=O)[C@H](CO)NC(=O)[C@@H](NC(=O)[C@H](CC(=O)O)NC(=O)[C@H](CO)NC(=O)[C@@H](NC(=O)[C@H](Cc1ccccc1)NC(=O)[C@@H](NC(=O)CNC(=O)[C@H](CCC(N)=O)NC(=O)C(C)(C)NC(=O)[C@@H](N)Cc1c[nH]cn1)[C@@H](C)O)[C@@H](C)O)C(C)C)[C@@H](C)O)C(C)C)C(=O)N[C@@H](CC(C)C)C(=O)N[C@@H](CCC(=O)O)C(=O)NC(C)(C)C(=O)NCC(=O)O [Peptide 189] (H-H[Aib]QGTFTSDVSK[αMeF]LDTK([AEEA-AEEA-γGlu-C18 diacid])RARDFVRWLLE[Aib]G-OH; N-terminus assumed)	10.95	7.7	10.35
CC(C)C[C@H](NC(=O)[C@H](Cc1c[nH]c2ccccc12)NC(=O)[C@H](CCCNC(=N)N)NC(=O)[C@@H](NC(=O)[C@H](Cc1ccccc1)NC(=O)[C@H](CC(=O)O)NC(=O)[C@H](CCC(N)=O)NC(=O)[C@H](C)NC(=O)[C@H](CCCNC(=N)N)NC(=O)[C@H](CCCCNC(=O)COCCOCCNC(=O)COCCOCCNC(=O)CC[C@H](NC(=O)CCCCCCCCCCCCCCCCC(=O)O)C(=O)O)NC(=O)[C@@H](NC(=O)[C@H](CC(=O)O)NC(=O)[C@H](CC(C)C)NC(=O)[C@](C)(Cc1ccccc1)NC(=O)[C@H](CCCCN)NC(=O)[C@H](CO)NC(=O)[C@@H](NC(=O)[C@H](CC(=O)O)NC(=O)[C@H](CO)NC(=O)[C@@H](NC(=O)[C@H](Cc1ccccc1)NC(=O)[C@@H](NC(=O)CNC(=O)[C@H](CCC(N)=O)NC(=O)C(C)(C)NC(=O)[C@@H](N)Cc1c[nH]cn1)[C@@H](C)O)[C@@H](C)O)C(C)C)[C@@H](C)O)C(C)C)C(=O)N[C@@H](CC(C)C)C(=O)NC(C)(C)C(=O)N[C@@H](CCC(=O)O)C(=O)O [Peptide 192] (H-H[Aib]QGTFTSDVSK[αMeF]LDTK([AEEA-AEEA-γGlu-C18 diacid])RAQDFVRWLL[Aib]E-OH; N-terminus assumed)	9.97	4.2	9.64
CC[C@H](C)[C@H](NC(=O)[C@H](CC(C)C)NC(=O)[C@H](Cc1c[nH]c2ccccc12)NC(=O)[C@H](CCCNC(=N)N)NC(=O)[C@@H](NC(=O)[C@H](Cc1ccccc1)NC(=O)[C@H](CC(=O)O)NC(=O)[C@H](CCC(N)=O)NC(=O)[C@H](C)NC(=O)[C@H](CCCNC(=N)N)NC(=O)[C@H](CCCCNC(=O)COCCOCCNC(=O)COCCOCCNC(=O)CC[C@H](NC(=O)CCCCCCCCCCCCCCCCC(=O)O)C(=O)O)NC(=O)[C@H](CO)NC(=O)[C@H](CC(=O)O)NC(=O)[C@H](CC(C)C)NC(=O)[C@](C)(Cc1ccccc1)NC(=O)[C@H](CCCCN)NC(=O)[C@H](CO)NC(=O)[C@@H](NC(=O)[C@H](CC(=O)O)NC(=O)[C@H](CO)NC(=O)[C@@H](NC(=O)[C@H](Cc1ccccc1)NC(=O)[C@@H](NC(=O)CNC(=O)[C@H](CCC(N)=O)NC(=O)C(C)(C)NC(=O)[C@@H](N)Cc1c[nH]cn1)[C@@H](C)O)[C@@H](C)O)C(C)C)C(C)C)C(=O)NC(C)(C)C(=O)N[C@@H](CCC(=O)O)C(=O)O [Peptide 196] (H-H[Aib]QGTFTSDVSK[αMeF]LDSK([AEEA-AEEA-γGlu-C18 diacid])RAQDFVRWLI[Aib]E-OH; N-terminus assumed)	10.57	17.6	9.62
